According to US12473324B2, “Triazine-based amphiphilic compound and use thereof” (INDUSTRY-UNIVERSITY COOPERATION FOUNDATION HANYANG …, priority 2019, dated 2025):

Columns and labels:
[1] = Hydrodynamic radius (Rh) of micelles by dynamic light scattering (DLS); format: physicochemical; conditions: 1.0 wt % detergent
Experimental: A method of measuring the radius of micelle is not particularly limited, but a method widely known in the art may be used, and for example, the radius of micelle may be measured using a dynamic light scattering (DLS) experiment.
(§1) Specifically, the critical micelle concentrations (CMCs) were measured using a fluorescent dye, diphenylhexatriene (DPH), and the hydrodynamic radii (Rh) of micelles formed by each preparation (1.0 wt %) were determined by a dynamic light scattering (DLS) experiment. The measured results are shown in Table 1 compared to DDM which is an existing amphiphilic molecule (detergent).

[2] = Critical micelle concentration (CMC) by fluorescent dye diphenylhexatriene (DPH); format: physicochemical; conditions: DPH fluorescence
Experimental: A method of measuring the CMC is not particularly limited, but a method widely known in the art may be used, and for example, the CMC may be measured by a fluorescent staining method using diphenylhexatriene (DPH).
as §1

BOR1-GFP fusion protein = assay: AtBOR1 thermal stability, fluorescence size exclusion chromatography (FSEC); conditions: 1% detergent, heated at 47° C. for 10 minutes
Experimental: Fluorescence size exclusion chromatography (FSEC): BOR1 of Arabidopsis thaliana was expressed in Saccharomyces cerevisiae FGY217 cells as a fusion protein having a C-terminal GFP tag. The cells were grown in a URA medium supplemented with 0.1% glucose. Protein expression was induced by adding 2% galactose, and then the cells were cultured at 20° C. for 18 hours as previously described. The cells were collected and used to prepare a membrane. The membrane including the BOR1-GFP fusion protein was diluted as follows. […] Samples were cultured while shaking at 4° C. for 1 hour, and then insoluble materials were removed by centrifugation at 14,000 g and 4° C. for 1 hour. A supernatant including the solubilized protein sample was heated at 47° C. for 10 minutes. After additional centrifugation to remove large aggregates, a 200 μl aliquot of the sample was injected into a Superose 6 10/300 column equilibrated with 20 mm Tris (pH 7.5), 150 mm NaCl and 0.03% DDM. The GFP fluorescence of each fraction was read using an excitation wavelength of 470 nm and an emission wavelength of 512 nm.

[3] = tested on: leucine transporter (LeuT); assay: LeuT structural stability: [3H]-Leu binding by scintillation proximity assay (SPA); format: biochemical, Aquifex aeolicus; conditions: CMC+0.04 wt % or CMC+0.2 wt %, room temperature, 13-day incubation, [3H]-Leu SPA
Experimental: Experiments were performed to measure the structural stability of the LeuT protein by TSMs, TTGs and TEMs. Each amphiphilic compound was used at a concentration of (a) CMC+0.04 wt % or (b) CMC+0.2 wt %, and the substrate binding properties of LeuT were measured using [^3H]-Leu via scintillation proximity assay (SPA). The measurement was performed at regular intervals over the course of a 13-day and 12-day incubation at room temperature, respectively.
Specifically, a wild-type leucine transporter (LeuT) derived from the thermophilic bacterium Aquifex aeolicus was purified by a previously described method (Nature 1998, 392, 353-358 by G. Deckert et al.). LeuT was expressed in E. coli C41 (DE3) transformed with pET16b encoding the C-terminal 8×His-tagged transporter (expression plasmids were provided from Dr E. Gouaux, Vollum Institute, Portland, Oregon, USA). In summary, after a bacterial membrane was isolated and solubilized in 1 wt % DDM, the protein was bound to Ni^2+-NTA resin (Life Technologies, Denmark), and eluted in 20 mM Tris-HCl (pH 8.0), 1 mM NaCl, 199 mM KCl, 0.05% (w/v) DDM and 300 mM imidazole. Then, the purified LeuT (0.5 mg/ml) was diluted with buffers supplemented with TSMs, TTGs, TEMs or DDM at a final concentration of CMC+0.04% (w/v) or CMC+0.2% (w/v) except for DDM and imidazole in the equivalent buffer described above. Protein samples were incubated at room temperature for 13 days, centrifuged at a specified time, and protein properties were confirmed by measuring [^3H]-Leucine binding ability using SPA. SPA was performed with 5 μL of each protein sample in a buffer containing 450 mM NaCl and each of TSMs and TEMs (or DDM). The SPA reaction was performed in the presence of 20 nM [^3H]-Leucine and 1.25 mg/ml copper chelate (His-Tag) YSi beads (PerkinElmer, Denmark). Overall [^3H]-Leucine coupling to each sample was measured using a MicroBeta liquid scintillation counter (Perkin Elmer).

[4] = Solubility of detergent (Table 1); format: physicochemical
[5] = target: T1, Salmonella typhimurium melibiose permease (MelBSt) (Salmonella typhimurium, UniProt P30878); assay: MelB extraction and thermal solubilization stability (SDS-PAGE, Western blotting); format: biochemical; conditions: 1.5 wt % detergent, 90 minutes
T1 construct: made in house; host or cells: E. coli DW2 cells
Experimental: Experiments were performed to measure the structural stability of Salmonella typhimurium melibiose permease (MelBSt) protein by TSMs, TTGs and TEMs. After the MelB protein was extracted from the membrane using TSMs, TTGs, TEMs or DDM, the amount and structure of the extracted protein were analyzed by SDS-PAGE and Western blotting. The concentration of the amphiphilic compound used was 1.5 wt %, the protein was extracted at 0° C. for 90 minutes and then the extracted protein was incubated at three high temperatures (45, 55, and 65° C.) for an additional 90 minutes. By measuring the amount of protein remaining in a dissolved state in an aqueous solution of the extracted protein and the heat-treated protein, we tried to evaluate the performance of both the protein extraction efficiency and stabilization ability of the compound at the same time. […]
Specifically, Salmonella typhimurium melibiose permease (MelBSt) having a 10-His tag at the C-terminus was expressed in E. coli DW2 cells (βmelB and βlacZY) using a plasmid pK95βAHB/WT MelBSt/CH10. […] MelBSt was measured by an ImageQuant LAS 4000 Biomolecular Imager (GE Health Care Lifer Science) using a SuperSignal West Pico chemiluminescent substrate.

AtBOR1 = AtBOR1 (Arabidopsis thaliana, UniProt Q8VYR7); assay: AtBOR1 thermal denaturation, CPM assay; format: biochemical; conditions: CMC+0.04 wt %, 40° C., 120 minutes
Experimental: CPM assay: AtBOR1 was concentrated to 10 mg/ml in a buffer (20 mM Tris-HCl (pH 7.5), 150 mM NaCl, 0.03% DDM) with a 100 kDa MWCO centrifugal filter, stored at −80° C. and thawed immediately prior to thermal stability analysis. […] A 7-diethylamino-3-(4′-maleimidylphenyl)-4-methylcoumarin (CPM) dye (Invitrogen) was dissolved in DMSO at 4 mg/ml, and was diluted 1:100 with a buffer (150 mM NaCl supplemented with 20 mM Tris-HCl (pH 7.5) and 0.03% DDM). After 3 μL of the CPM dye was added to each well in the dark, the plate was covered with a transparent lid and the cells were cultured at 40° C. for 120 minutes. Fluorescence emission was monitored every 5 minutes using SpectraMax M2 (Molecular Devices) with a […] of 387 nm and an emission wavelength of 463 nm. Fluorescence readings were normalized under the most unstable conditions to calculate the percentage of proteins that were relatively unfolded. Data was analyzed as a single exponential decay curve using GraphPad Prism 6.

μ-opioid receptor (MOR) = μ-opioid receptor (MOR) (Mus musculus, UniProt P42866); assay: MOR thermal stability test (CPM dye, melting point Tm); format: biochemical; conditions: 0.5 wt % compound, CPM fluorescence, 20° C. to 65° C.
Experimental: An N-[4-(7-diethylamino-4-methyl-3-coumarinyl)phenyl]maleimide (CPM) dye dissolved in DMSO (3 mg/ml) was diluted 40× in a buffer including 20 mM HEPES pH 7.5 and 150 mM NaCl. […] After 1 hour at room temperature, a compound was prepared at a final concentration of 0.5 wt % by diluting the receptor solution 2× in 20 mM HEPES pH 7.5, 150 mM NaCl. After […] of the diluted CPM dye was added thereto, the receptor stability of different compounds was measured by recording the fluorescence spectra (excitation 387 nm) every 5° C. from 20° C. to 65° C. while culturing at each temperature for 2 minutes. The melting point (Tm) was calculated by plotting the read value at 470 nm and fitting a non-linear regression curve using GraphPad Prism.

[6] = target: human β2 adrenergic receptor (β2AR) (Homo sapiens, UniProt P07550); assay: β2AR stability: [3H]-dihydroalprenolol (DHA) ligand binding assay; conditions: CMC+0.2 wt %, room temperature, 6 days, [3H]-DHA
Experimental: Experiments were performed to measure the structural stability of the human β2 adrenergic receptor (β2AR) and G-protein-coupled receptor (GPCR) by TSMs, TTGs and TEMs. That is, a receptor purified by DDM was subjected to amphiphilic molecular exchange when diluted with a buffer solution containing only each of TSMs, TTGs and TEMs without cholesteryl hemisuccinate (CHS) or a buffer solution containing CHS and DDM. The final concentration of the amphiphilic molecule was CMC+0.2 wt %, and the ligand binding properties of the receptor were measured by binding of [^3H]-dihydroalprenolol ([^3H]-DHA). Specifically, the following method was used for a radioligand binding test. β2AR was purified using 0.1% DDM (D. M. Rosenbaum et al., Science, 2007, 318, 1266-1273.) and finally concentrated to about 10 mg/ml (about 200 μM). A master binding mixture containing 10 nM [^3H]-dihydroalprenolol (DHA) supplemented with 0.5 mg/ml BSA in 0.2% amphiphilic compounds (DDM, TSMs, TTGs or TEMs) was prepared using β2AR purified with DDM. Receptors purified with DDM, TSMs, TTGs or TEMs were incubated with 10 nM [^3H]-DHA at room temperature for 6 days. The mixture was loaded onto a G-50 column and a flow through was collected with 1 ml of a binding buffer (20 mM HEPES supplemented with 0.5 mg/ml BSA and 20×CMC each amphiphilic compound, pH 7.5, 100 mM NaCl), and filled with 15 ml of a scintillation fluid. Receptor-bound [^3H]-DHA was measured by a scintillation counter (Beckman). The binding of [^3H]-DHA is shown as a column graph.

human β2 adrenergic receptor (β2AR), sequence (P07550 whole entry): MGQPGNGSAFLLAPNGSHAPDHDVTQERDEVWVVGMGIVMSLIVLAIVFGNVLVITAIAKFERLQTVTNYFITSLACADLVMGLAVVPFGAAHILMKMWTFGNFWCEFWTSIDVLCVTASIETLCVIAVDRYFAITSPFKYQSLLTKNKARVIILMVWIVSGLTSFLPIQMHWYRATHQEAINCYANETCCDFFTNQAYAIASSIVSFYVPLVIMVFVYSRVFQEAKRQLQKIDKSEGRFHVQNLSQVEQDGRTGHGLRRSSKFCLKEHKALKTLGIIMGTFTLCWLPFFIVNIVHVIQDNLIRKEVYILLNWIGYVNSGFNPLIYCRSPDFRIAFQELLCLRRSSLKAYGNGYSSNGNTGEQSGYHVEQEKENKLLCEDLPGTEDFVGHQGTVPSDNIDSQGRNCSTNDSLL
μ-opioid receptor (MOR), sequence (P42866 whole entry): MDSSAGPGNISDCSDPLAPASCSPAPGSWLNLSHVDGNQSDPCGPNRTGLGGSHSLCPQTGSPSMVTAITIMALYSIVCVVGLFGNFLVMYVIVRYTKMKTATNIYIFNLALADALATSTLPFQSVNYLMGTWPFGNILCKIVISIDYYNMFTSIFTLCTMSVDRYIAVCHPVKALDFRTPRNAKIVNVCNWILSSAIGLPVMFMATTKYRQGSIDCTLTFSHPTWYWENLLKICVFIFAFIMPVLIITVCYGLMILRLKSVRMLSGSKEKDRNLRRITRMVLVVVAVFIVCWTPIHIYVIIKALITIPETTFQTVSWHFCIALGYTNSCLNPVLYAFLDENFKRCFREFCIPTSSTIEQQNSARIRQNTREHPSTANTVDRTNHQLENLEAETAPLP
AtBOR1, sequence (Q8VYR7 whole entry): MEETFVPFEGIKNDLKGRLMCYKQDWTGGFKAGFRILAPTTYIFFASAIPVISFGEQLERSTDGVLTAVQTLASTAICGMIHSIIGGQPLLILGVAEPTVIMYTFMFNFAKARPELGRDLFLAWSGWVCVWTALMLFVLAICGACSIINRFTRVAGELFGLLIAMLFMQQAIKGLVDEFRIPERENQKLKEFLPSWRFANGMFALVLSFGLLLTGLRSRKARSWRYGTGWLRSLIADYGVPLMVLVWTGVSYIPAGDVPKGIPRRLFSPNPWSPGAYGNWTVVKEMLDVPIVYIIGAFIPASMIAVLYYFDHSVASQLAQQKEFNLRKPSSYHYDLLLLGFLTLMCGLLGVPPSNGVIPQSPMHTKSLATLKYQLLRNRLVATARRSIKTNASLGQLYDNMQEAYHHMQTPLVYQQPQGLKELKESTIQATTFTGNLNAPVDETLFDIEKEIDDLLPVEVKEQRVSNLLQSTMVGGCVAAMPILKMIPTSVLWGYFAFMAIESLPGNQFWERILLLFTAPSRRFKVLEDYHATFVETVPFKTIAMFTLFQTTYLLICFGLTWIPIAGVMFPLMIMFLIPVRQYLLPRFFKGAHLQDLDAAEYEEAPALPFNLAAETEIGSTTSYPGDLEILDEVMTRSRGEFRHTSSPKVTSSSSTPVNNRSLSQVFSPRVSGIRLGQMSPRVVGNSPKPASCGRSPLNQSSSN
T1 sequence (P30878 whole entry): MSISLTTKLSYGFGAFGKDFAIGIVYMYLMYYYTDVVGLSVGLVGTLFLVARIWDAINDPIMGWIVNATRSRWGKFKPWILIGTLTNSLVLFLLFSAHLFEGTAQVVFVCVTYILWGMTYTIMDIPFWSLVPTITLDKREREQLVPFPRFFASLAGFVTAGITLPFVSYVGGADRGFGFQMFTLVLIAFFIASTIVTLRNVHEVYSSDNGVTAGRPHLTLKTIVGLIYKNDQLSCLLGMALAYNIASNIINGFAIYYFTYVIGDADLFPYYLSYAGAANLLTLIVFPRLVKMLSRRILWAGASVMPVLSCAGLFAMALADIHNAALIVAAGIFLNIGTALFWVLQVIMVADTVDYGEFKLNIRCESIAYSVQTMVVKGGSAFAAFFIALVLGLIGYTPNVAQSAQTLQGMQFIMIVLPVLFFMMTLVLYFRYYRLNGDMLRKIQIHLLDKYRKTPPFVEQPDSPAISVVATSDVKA

With `CCCCCCCCCCCCO[C@@H]1O[C@H](CO)[C@@H](O[C@H]2O[C@H](CO)[C@@H](O)[C@H](O)[C@H]2O)[C@H](O)[C@H]1O` [DDM, n-dodecyl-β-D-maltopyranoside, reference compound] the “Rh (nm)” value [1] was 3.4 ± 0.03 nm, the “CMC” value [2] was ~0.17 mM and the “AtBOR1 thermal stability by FSEC (protein peak vs aggregation peak)” value (BOR1-GFP fusion protein) was “significant reduction in the original homogeneous protein peak”. The “LeuT substrate binding properties over incubation” value [3] was “high initial activity, but the substrate binding ability sharply decreased with the passage of time”, the solubility [4] was ~10% and the “MelB protein extraction efficiency at 0° C.” value [5] was “high MelB protein extraction efficiency”.
In the case of `CCCCCCCCCCOc1nc(OCCCCCCCCCC)nc(N(CCO[C@@H]2O[C@H](CO)[C@@H](O[C@H]3O[C@H](CO)[C@@H](O)[C@H](O)[C@H]3O)[C@H](O)[C@H]2O)CCO[C@@H]2O[C@H](CO)[C@@H](O[C@H]3O[C@H](CO)[C@@H](O)[C@H](O)[C@H]3O)[C@H](O)[C@H]2O)n1` [TEM-E10], the “Rh (nm)” value [1] is reported as 4.5 ± 0.1 nm, the “ability to preserve AtBOR1 in the folded state (CPM)” value (AtBOR1) is reported as “best performance” and the “CMC” value [2] is reported as ~0.005 mM. For the same molecule, the “MOR melting point (Tm)” value (μ-opioid receptor (MOR)) was 48.0 °C, the “AtBOR1 thermal stability by FSEC (protein peak vs aggregation peak)” value (BOR1-GFP fusion protein) was “highly effective in maintaining the initial state of the protein” and the “LeuT substrate binding properties over incubation” value [3] was “best substrate binding activity”. It also gave a solubility [4] of ~5%.
In the case of `CCCCCCCCCCOc1nc(NC(CO[C@@H]2O[C@H](CO)[C@@H](O[C@H]3O[C@H](CO)[C@@H](O)[C@H](O)[C@H]3O)[C@H](O)[C@H]2O)CO[C@@H]2O[C@H](CO)[C@@H](O[C@H]3O[C@H](CO)[C@@H](O)[C@H](O)[C@H]3O)[C@H](O)[C@H]2O)nc(OCCCCCCCCCC)n1` [TSM-E10], the “β2AR long-term ligand binding retention” value [6] is reported as “better in maintaining the ligand binding ability of the receptor than DDM”, the “Rh (nm)” value [1] is reported as 8.7 ± 0.7 nm and the “CMC” value [2] is reported as ~0.004 mM. For the same molecule, the “MOR melting point (Tm)” value (μ-opioid receptor (MOR)) was 48.9 °C and the solubility [4] was ~5%.
For `CCCCCCCCCSc1nc(NC(CO[C@@H]2O[C@H](CO)[C@@H](O[C@H]3O[C@H](CO)[C@@H](O)[C@H](O)[C@H]3O)[C@H](O)[C@H]2O)CO[C@@H]2O[C@H](CO)[C@@H](O[C@H]3O[C@H](CO)[C@@H](O)[C@H](O)[C@H]3O)[C@H](O)[C@H]2O)nc(SCCCCCCCCC)n1` [TSM-T9], the “β2AR long-term ligand binding retention” value [6] was “better in maintaining the ligand binding ability of the receptor than DDM”, the “Rh (nm)” value [1] was 5.1 ± 0.1 nm and the “CMC” value [2] was ~0.004 mM. For the same molecule, the “LeuT substrate binding properties over incubation” value [3] was “best substrate binding activity” and the solubility [4] was ~10%.
With `CCCCCCCCCCSc1nc(NC(CO[C@@H]2O[C@H](CO)[C@@H](O)[C@H](O)[C@H]2O)(CO[C@@H]2O[C@H](CO)[C@@H](O)[C@H](O)[C@H]2O)CO[C@@H]2O[C@H](CO)[C@@H](O)[C@H](O)[C@H]2O)nc(SCCCCCCCCCC)n1` [TTG-T10] the “β2AR long-term ligand binding retention” value [6] was “better in maintaining the ligand binding ability of the receptor than DDM”, the “Rh (nm)” value [1] was 3.6 ± 0.10 nm and the “CMC” value [2] was ~0.006 mM. The “LeuT substrate binding properties over incubation” value [3] was “best substrate binding activity” and the solubility [4] was ~10%.
For `CCCCCCCCCCCSc1nc(NC(CO[C@@H]2O[C@H](CO)[C@@H](O)[C@H](O)[C@H]2O)(CO[C@@H]2O[C@H](CO)[C@@H](O)[C@H](O)[C@H]2O)CO[C@@H]2O[C@H](CO)[C@@H](O)[C@H](O)[C@H]2O)nc(SCCCCCCCCCCC)n1` [TTG-T11], the “β2AR long-term ligand binding retention” value [6] was “better in maintaining the ligand binding ability of the receptor than DDM”, the “Rh (nm)” value [1] was 3.7 ± 0.09 nm and the “CMC” value [2] was ~0.004 mM. The “LeuT substrate binding properties over incubation” value [3] was “best substrate binding activity” and the solubility [4] was ~10%.
With `CCCCCCCCCCCCSc1nc(NC(CO[C@@H]2O[C@H](CO)[C@@H](O)[C@H](O)[C@H]2O)(CO[C@@H]2O[C@H](CO)[C@@H](O)[C@H](O)[C@H]2O)CO[C@@H]2O[C@H](CO)[C@@H](O)[C@H](O)[C@H]2O)nc(SCCCCCCCCCCCC)n1` [TTG-T12] the “β2AR long-term ligand binding retention” value [6] was “better in maintaining the ligand binding ability of the receptor than DDM”, the “Rh (nm)” value [1] was 5.5 ± 0.20 nm and the “CMC” value [2] was ~0.0035 mM. For the same molecule, the “LeuT substrate binding properties over incubation” value [3] was “best substrate binding activity” and the solubility [4] was ~5%.
